Source: patent US20260041653A1, “AN HDAC INHIBITOR FOR TREATING CANCER WITH A MODIFIED STK11 ACTIVITY OR EXPRESSION” (Tango Therapeutics, Inc., priority 2022, published 2026)

System: MC38_sgStk11 tumor
Assay: Anti-tumor efficacy in murine subcutaneous MC38_sgStk11 tumor model
Format: in vivo, Mus musculus
Settings: for T/C / TGI %: day 11
Method: Summary: An in vivo anti-tumor efficacy of double combination treatment of Anti-PD1 and HDAC1,2-selective inhibitor in a murine subcutaneous MC38_sgStk11 tumor model in […] mice was performed.
96 mice plus 39 spare mice of the species: Mus musculus: strain: C57BL/6; age 8-10 weeks; sex: female; and body weight: 16.9-20.0 g
The MC38_sgStk11 tumor cells were maintained in vitro as a monolayer culture in DMEM+2 mM glutamine supplemented with about 10% heat inactivated fetal bovine serum, about 100 U/ml penicillin and 100 μg/ml streptomycin at about 37° C. in an atmosphere of about 5% CO2 in air. The tumor cells were routinely sub-cultured twice weekly by trypsin-EDTA treatment. The cells growing in an exponential growth phase were harvested and counted for tumor inoculation.
Each mouse was inoculated subcutaneously at the right upper flank with MC38_sgStk11 tumor cells (0.5×106) in 0.1 ml of PBS for tumor development. Treatments were started on day 4 after tumor inoculation when the average tumor size reached 52 mm^3. The animals were assigned into groups according to a sorting standard operating procedures based upon their tumor volumes. Each group consisted of 8 tumor bearing mice. The testing article was administrated to the mice according to the predetermined regimen as shown in the experimental design table (Table 1-1).
All the procedures related to animal handling, care and the treatment in the study were performed according to the guidelines approved by the Institutional Animal Care and Use Committee (IACUC) of vendor following the guidance of the Association for Assessment and Accreditation of Laboratory Animal Care (AAALAC). At the time of routine monitoring, the animals were daily checked for any effects of tumor growth and treatments on normal behavior such as mobility, food and water consumption, body weight gain/loss (body weights were measured three times per week), eye/hair matting and any other abnormal effect as stated in the protocol. Death and observed clinical signs were recorded on the basis of the numbers of animals within each subset.
A primary endpoint was to see if the tumor growth could be delayed or mice could be cured. Tumor size was measured three times per week in two dimensions using a caliper, and the volume was expressed in mm3 using the formula: V=0.5 a×b2 where a and b are the long and short diameters of the tumor, respectively. The T/C value (in percent) is an indication of antitumor effectiveness; T and C are the mean volume of the treated and control groups, respectively, on a given day. TGI is calculated for each group using the formula: TGI (%)=[1−(Ti−T0)/(Vi−V0)]×100; Ti is the average tumor volume of a treatment group on a given day, T0 is the average tumor volume of the treatment group on the day of treatment start, Vi is the average tumor volume of the vehicle control group on the same day with Ti, and V0 is the average tumor volume of the vehicle group on the day of treatment start.
Statistical analysis of difference in the tumor volume among the groups were conducted on the data obtained at the best therapeutic time point at the day 11 after the start of treatment. A one-way ANOVA was performed for comparisons between groups. The survival analysis between groups was carried out with Kaplan-Meier test. p<0.05 was considered to be statistically significant.

[1] = Gr 5: Compound I 75 mg/kg PO QD + Anti-IgG2a 10 mg/kg IP BIW
[2] = Gr 6: Compound I 150 mg/kg D0-D4, 100 mg/kg D5-D48 PO QD + Anti-IgG2a 10 mg/kg IP BIW

Compound: C[S@@](=N)(=O)c1ccc(C(=O)Nc2cc(-c3ccc(F)cc3)ccc2N)cc1 [Compound I, (R)—N-(4-amino-4′-fluoro-[1,1′-biphenyl]-3-yl)-4-(S-methylsulfonimidoyl)benzamide]
- PR (partial regression) [1]: 0.0%
- Tumor Volume (Gr 5: Compound I 75 mg/kg PO QD + Anti-IgG2a 10 mg/kg IP BIW, day 0 of treatment): 52 ± 2 mm^3
- Tumor Volume (Gr 5: Compound I 75 mg/kg PO QD + Anti-IgG2a 10 mg/kg IP BIW, day 2 of treatment): 218 ± 12 mm^3
- Tumor Volume (Gr 5: Compound I 75 mg/kg PO QD + Anti-IgG2a 10 mg/kg IP BIW, day 4 of treatment): 485 ± 37 mm^3
- Tumor Volume (Gr 5: Compound I 75 mg/kg PO QD + Anti-IgG2a 10 mg/kg IP BIW, day 7 of treatment): 576 ± 45 mm^3
- Tumor Volume (Gr 5: Compound I 75 mg/kg PO QD + Anti-IgG2a 10 mg/kg IP BIW, day 9 of treatment): 622 ± 44 mm^3
- T/C [1]: 29.7%
- TGI % [1]: 72.1%
- Tumor Volume (Gr 5: Compound I 75 mg/kg PO QD + Anti-IgG2a 10 mg/kg IP BIW, day 11 of treatment): 632 ± 55 mm^3
- Tumor Volume (Gr 5: Compound I 75 mg/kg PO QD + Anti-IgG2a 10 mg/kg IP BIW, day 14 of treatment): 580 ± 85 mm^3
- Tumor Volume (Gr 5: Compound I 75 mg/kg PO QD + Anti-IgG2a 10 mg/kg IP BIW, day 16 of treatment): 557 ± 101 mm^3
- Tumor Volume (Gr 5: Compound I 75 mg/kg PO QD + Anti-IgG2a 10 mg/kg IP BIW, day 18 of treatment): 536 ± 109 mm^3
- Tumor Volume (Gr 5: Compound I 75 mg/kg PO QD + Anti-IgG2a 10 mg/kg IP BIW, day 21 of treatment): 514 ± 117 mm^3
- Tumor Volume (Gr 5: Compound I 75 mg/kg PO QD + Anti-IgG2a 10 mg/kg IP BIW, day 23 of treatment): 502 ± 138 mm^3
- Tumor Volume (Gr 5: Compound I 75 mg/kg PO QD + Anti-IgG2a 10 mg/kg IP BIW, day 25 of treatment): 477 ± 151 mm^3
- Tumor Volume (Gr 5: Compound I 75 mg/kg PO QD + Anti-IgG2a 10 mg/kg IP BIW, day 28 of treatment): 551 ± 171 mm^3
- Tumor Volume (Gr 5: Compound I 75 mg/kg PO QD + Anti-IgG2a 10 mg/kg IP BIW, day 30 of treatment): 815 ± 291 mm^3
- Tumor Volume (Gr 5: Compound I 75 mg/kg PO QD + Anti-IgG2a 10 mg/kg IP BIW, day 32 of treatment): 1001 ± 375 mm^3
- Tumor Volume (Gr 5: Compound I 75 mg/kg PO QD + Anti-IgG2a 10 mg/kg IP BIW, day 34 of treatment): 827 ± 268 mm^3
- Tumor Volume (Gr 5: Compound I 75 mg/kg PO QD + Anti-IgG2a 10 mg/kg IP BIW, day 38 of treatment): 14 mm^3
- Tumor Volume (Gr 5: Compound I 75 mg/kg PO QD + Anti-IgG2a 10 mg/kg IP BIW, day 42 of treatment): 13 mm^3
- Tumor Volume (Gr 5: Compound I 75 mg/kg PO QD + Anti-IgG2a 10 mg/kg IP BIW, day 45 of treatment): 6 mm^3
- Tumor Volume (Gr 5: Compound I 75 mg/kg PO QD + Anti-IgG2a 10 mg/kg IP BIW, day 49 after start of treatment): 0 mm^3
- Tumor Volume (Gr 5: Compound I 75 mg/kg PO QD + Anti-IgG2a 10 mg/kg IP BIW, day 52 after start of treatment): 0 mm^3
- Tumor Volume (Gr 5: Compound I 75 mg/kg PO QD + Anti-IgG2a 10 mg/kg IP BIW, day 56 after start of treatment): 0 mm^3
- Tumor Volume (Gr 5: Compound I 75 mg/kg PO QD + Anti-IgG2a 10 mg/kg IP BIW, day 59 after start of treatment): 0 mm^3
- Tumor Volume (Gr 5: Compound I 75 mg/kg PO QD + Anti-IgG2a 10 mg/kg IP BIW, day 63 after start of treatment): 0 mm^3
- Tumor Volume (Gr 5: Compound I 75 mg/kg PO QD + Anti-IgG2a 10 mg/kg IP BIW, day 66 after start of treatment): 0 mm^3
- CR (complete regression) [2]: 0.0%
- ORR (CR + PR) [2]: 0.0%
- PR (partial regression) [2]: 0.0%
- Tumor Volume (Gr 6: Compound I 150 mg/kg D0-D4, 100 mg/kg D5-D48 PO QD + Anti-IgG2a 10 mg/kg IP BIW, day 0 of treatment): 52 ± 2 mm^3
- Tumor Volume (Gr 6: Compound I 150 mg/kg D0-D4, 100 mg/kg D5-D48 PO QD + Anti-IgG2a 10 mg/kg IP BIW, day 2 of treatment): 205 ± 14 mm^3
- Tumor Volume (Gr 6: Compound I 150 mg/kg D0-D4, 100 mg/kg D5-D48 PO QD + Anti-IgG2a 10 mg/kg IP BIW, day 4 of treatment): 450 ± 40 mm^3
- Tumor Volume (Gr 6: Compound I 150 mg/kg D0-D4, 100 mg/kg D5-D48 PO QD + Anti-IgG2a 10 mg/kg IP BIW, day 7 of treatment): 508 ± 40 mm^3
- Tumor Volume (Gr 6: Compound I 150 mg/kg D0-D4, 100 mg/kg D5-D48 PO QD + Anti-IgG2a 10 mg/kg IP BIW, day 9 of treatment): 636 ± 19 mm^3
- T/C [2]: 41.2%
- TGI % [2]: 60.2%
- Tumor Volume (Gr 6: Compound I 150 mg/kg D0-D4, 100 mg/kg D5-D48 PO QD + Anti-IgG2a 10 mg/kg IP BIW, day 11 of treatment): 878 ± 66 mm^3
- Tumor Volume (Gr 6: Compound I 150 mg/kg D0-D4, 100 mg/kg D5-D48 PO QD + Anti-IgG2a 10 mg/kg IP BIW, day 14 of treatment): 1090 ± 167 mm^3
- Tumor Volume (Gr 6: Compound I 150 mg/kg D0-D4, 100 mg/kg D5-D48 PO QD + Anti-IgG2a 10 mg/kg IP BIW, day 16 of treatment): 1236 ± 211 mm^3
- Tumor Volume (Gr 6: Compound I 150 mg/kg D0-D4, 100 mg/kg D5-D48 PO QD + Anti-IgG2a 10 mg/kg IP BIW, day 18 of treatment): 1414 ± 243 mm^3
- Tumor Volume (Gr 6: Compound I 150 mg/kg D0-D4, 100 mg/kg D5-D48 PO QD + Anti-IgG2a 10 mg/kg IP BIW, day 21 of treatment): 1728 ± 366 mm^3
- Tumor Volume (Gr 6: Compound I 150 mg/kg D0-D4, 100 mg/kg D5-D48 PO QD + Anti-IgG2a 10 mg/kg IP BIW, day 23 of treatment): 2198 ± 472 mm^3
- Tumor Volume (Gr 6: Compound I 150 mg/kg D0-D4, 100 mg/kg D5-D48 PO QD + Anti-IgG2a 10 mg/kg IP BIW, day 25 of treatment): 2054 ± 638 mm^3
- Tumor Volume (Gr 6: Compound I 150 mg/kg D0-D4, 100 mg/kg D5-D48 PO QD + Anti-IgG2a 10 mg/kg IP BIW, day 28 of treatment): 1705 ± 330 mm^3
- Tumor Volume (Gr 6: Compound I 150 mg/kg D0-D4, 100 mg/kg D5-D48 PO QD + Anti-IgG2a 10 mg/kg IP BIW, day 30 of treatment): 1840 ± 326 mm^3
- Tumor Volume (Gr 6: Compound I 150 mg/kg D0-D4, 100 mg/kg D5-D48 PO QD + Anti-IgG2a 10 mg/kg IP BIW, day 32 of treatment): 1949 ± 395 mm^3
- Tumor Volume (Gr 6: Compound I 150 mg/kg D0-D4, 100 mg/kg D5-D48 PO QD + Anti-IgG2a 10 mg/kg IP BIW, day 34 of treatment): 2089 ± 389 mm^3
